Measured values taken from patent US6723739B1, “Glucopyranoside benzothiophenes” (Eli Lilly and Company, priority 1994, dated 2004).

Key:
[1] = tested on: uterine eosinophil peroxidase; assay: Uterine eosinophil peroxidase (EPO) assay in ovariectomized rats; assay type: in vivo, rat; settings: OVX rats, daily for 4 days
Description: (§1) Seventy-five day old female Sprague Dawley rats (weight range of 200 to 225 g) were obtained from Charles River Laboratories (Portage, Mich.). The animals were either bilaterally ovariectomized (OVX) or exposed to a sham surgical procedure at Charles River Laboratories, and then shipped after one week. Upon arrival, they were housed in metal hanging cages in groups of 3 or 4 per cage and had ad libitum access to food (calcium content approximately 0.5%) and water for one week. Room temperature was maintained at 22.2°±1.7° C. with a minimum relative humidity of 40%. The photoperiod in the room was 12 hours light and 12 hours dark.
(§2) Dosina Regimen/Tissue Collection. After a one week acclimation period (therefore, two weeks post-OVX) daily dosing with test compound was initiated. All compounds were administered subcutaneously at the dosages listed. Animals were dosed daily for 4 days. Following the dosing regimen animals were weighed and anesthetized with a ketamine: xylazine (2:1, [V:V] mixture and a blood sample was collected by cardiac puncture. The animals were then sacrificed by asphyxiation with CO2 and the uterus was removed through a midline incision and a wet weight was determined.
Uterine Eosinophil Peroxidase (EPO) Assay. The presence of eosinophils in the uterus is an indication of estrogenic activity of a compound. To maintain EPO activity, uteri were kept at 4° C. until time of enzymatic analysis. The uteri were then homogenized in 50 volumes of 50 mM Tris buffer (pH-8.0) containing 0.005% Triton X-100. Upon addition of 0.01% hydrogen peroxide and 10 mM o-phenylenediamine (final concentrations) in Tris buffer, increase in absorbance was monitored for one minute at 450 nm. The maximal velocity of a 15 second interval was determined over the initial linear portion of the reaction curve.

[2] = tested on: serum cholesterol; assay: Serum cholesterol in the ovariectomized rat post-menopausal model; assay type: in vivo; settings: OVX rats, daily for 4 days
Experimental: (§3) A post-menopausal model was used in which effects of different treatments upon circulating lipids were determined.
as §1, §2
Cholesterol Analysis. Blood samples were allowed to clot at room temperature for 2 hrs, and serum was obtained following centrifugation for 10 min at 3000 rpm. Serum cholesterol was determined using a Boehringer Mannheim Diagnostics high performance cholesterol assay. Briefly the cholesterol was oxidized to cholest-4-en-3-one and hydrogen peroxide. The hydrogen peroxide was then reacted with phenol and 4-aminophenazone in the presence of peroxidase to produce a p-quinone imine dye, which was read spectrophotometrically at 500 nm. Cholesterol concentration was then calculated against a standard curve. The entire assay was automated using a Biomek Automated workstation.

[3] = tested on: uterus; assay: Uterine wet weight in ovariectomized rats; assay type: in vivo, rat; settings: OVX rats, daily for 4 days, vs control OVX
Experimental: as §3, §1, §2

[4] = Systemic circulation and metabolites after oral raloxifene in humans; assay type: in vivo, human

Row | Structure (SMILES) | EPO Activity (Vmax for eosinophil peroxidase activity) ([1]; 0.013 mg/kg subcutaneously) [n OD/min] | EPO Activity (Vmax for eosinophil peroxidase activity) ([1]; 0.13 mg/kg subcutaneously) [n OD/min] | EPO Activity (Vmax for eosinophil peroxidase activity) ([1]; 1.3 mg/kg subcutaneously) [n OD/min] | % Decrease of Serum Cholesterol ([2]; 0.013 mg/kg subcutaneously) [%] | % Decrease of Serum Cholesterol ([2]; 0.13 mg/kg subcutaneously) [%] | % Decrease of Serum Cholesterol ([2]; 1.3 mg/kg subcutaneously) [%] | % Uterine Wt. gain ([3]; 0.013 mg/kg subcutaneously) [%] | % Uterine Wt. gain ([3]; 0.13 mg/kg subcutaneously) [%] | % Uterine Wt. gain ([3]; 1.3 mg/kg subcutaneously) [%] | Metabolite status ([4]; human metabolite of raloxifene) | Concentrations of raloxifene in systemic circulation ([4]; administered orally to humans)
1 | O=C(c1ccc(OCCN2CCCCC2)cc1)c1c(-c2ccc(O)cc2)sc2cc(O[C@@H]3OC(C(=O)O)[C@@H](O)[C@H](O)[C@H]3O)ccc12 (some centres unmarked) [Ia] | 2.0 | 2.3 | 3.5 | 21.7 | 43.8 | 44.5 | −21.3 | 14.2 | 24.1 |  | 
2 | O=C(c1ccc(OCCN2CCCCC2)cc1)c1c(-c2ccc(O[C@@H]3O[C@H](C(=O)O)[C@@H](O)[C@H](O)[C@H]3O)cc2)sc2cc(O)ccc12 [Ib] | 3.2 | 3.1 | 4.4 | 13.6 | 21.9 | 56.8 | −7.7 | 14.5 | 36.1 | predominant human metabolite | 
3 | Cl.O=C(c1ccc(OCCN2CCCCC2)cc1)c1c(-c2ccc(O)cc2)sc2cc(O)ccc12 [raloxifene, 6-Hydroxy-2-(4-hydroxyphenyl)-3-[4-(2-piperidinoethoxy)benzoyl]benzo[b]thiophene, reference compound] |  |  |  |  |  |  |  |  |  |  | absence of detectable concentrations
